Data set [1] is described as follows: Phase I study: safety and tolerability (adverse events) of VS-6063 tablets. The class given is in vivo, human (healthy male subjects). From the text: In a Phase I, open-label, single center, single dose, partially randomized trial, the safety, bioavailability, and pharmacodynamics of prototype and reference formulations of VS-6063 were investigated in healthy male subjects. The study was comprised of four periods, each of which adhered to the same study design and involved 24 healthy male subjects between 40 and 65 years of age with a body mass index between 18.0 and 35.0 kg/m^2. Following a 28 day screening period, the subjects were admitted to the clinical unit the morning prior to dosing day (Day −1) and were dosed in the morning of Day 1. Subjects in Regimens A and B were administered VS-6063 following an overnight fast of about 10 hours, while subjects in Regimens C and D were administered VS-6063 within 30 minutes of starting a high fat breakfast, which was consumed within 25 minutes. Subjects remained on site until 36 hours after dosing. There was a minimum washout period of 7 days between the administration of each regimen. A follow-up phone call took place 7 to 10 days post final dose in periods 3 and 4 to ensure the ongoing well-being of the subjects.

The conditions of data set [2]: male, beagle, dog, in vivo, po.
Protocol: (§1) 4 groups of 1 male beagle dog per group received an oral gavage dose of VS-6063 in various formulations in a 4-session crossover design with a minimum 3-day washout period between dose sessions. In each session, VS-6063, VS-6063-25% SDD in Soluplus/PVP-A, VS-6063-25% physical mixture with Soluplus/PVP-A, and VS-6063-10% SDD in [sequence] L100-55 were administered at a target dose level of 10 mg API/kg. Blood samples (anticoagulant: K2EDTA) were scheduled for collection from each animal prior to dosing and at 0.25, 0.5, 1, 2, 4, 6, 8, 12 and 24 hours after dosing in each dose session. Blood samples were processed for plasma and the plasma was analyzed for VS-6063 by LC-MS/MS. Plasma concentration-time data for individual animals were analyzed to determine the pharmacokinetic profiles of VS-6063.
(§2) 4 groups of 1 male beagle dog per group received an oral gavage dose of VS-6063 in various formulations in a 4-session crossover design with a minimum 3-day washout period between dose sessions. In each session, VS-6063-25% physical mixture with Soluplus/PVP-A and VS-6063-25% SDD in Soluplus/PVP-A were administered at a target dose level of 20 mg API/kg and VS-6063-50% physical mixture with Soluplus/PVP-A was administered at target dose levels of 10 and 20 mg API/kg. Blood samples (anticoagulant: K2EDTA) were scheduled for collection from each animal prior to dosing and at 0.25, 0.5, 1, 2, 4, 6, 8, 12 and 24 hours after dosing in each dose session. Blood samples were processed for plasma and the plasma was analyzed for VS-6063 by LC-MS/MS. Plasma concentration-time data for individual animals were analyzed to determine the pharmacokinetic profiles of VS-6063.
(§3) VS-6063 was formulated (0.934 correction factor) at a target concentration of 10 mg API/mL in 0.5% (w/v) Methocel A4M in water with 0.1% (v/v) Tween 80. VS-6063-25% SDD in Soluplus/PVP-A was formulated (0.25 correction factor) at a target concentration of 10 mg API/mL in 0.5% (w/v) Methocel A4M in water. VS-6063-25% physical mixture with Soluplus/PVP-A was formulated (0.25 correction factor) at a target concentration of 10 mg API/mL in 0.5% (w/v) Methocel A4M in water. VS-6063-10% SDD in [sequence] L100-55 was formulated (0.10 correction factor) at a target concentration of 10 mg API/mL in 0.5% (w/v) Methocel A4M in water.
(§4) VS-6063-25% physical mixture with Soluplus/PVP-A and VS-6063-25% SDD in Soluplus/PVP-A were formulated (0.25 correction factor) at a target concentration of 10 mg API/mL in 0.5% (w/v) Methocel A4M in water. VS-6063-50% Physical mixture with Soluplus/PVP-A was formulated (0.50 correction factor) at target concentrations of 5 mg API/mL and 10 mg API/mL in 0.5% (w/v) Methocel A4M in water.
(§5) 4 groups of 1 male beagle dog per group received an oral gavage dose of VS-6063 in various formulations in a 4-session crossover design with a minimum 3-day washout period between dose sessions. In each session, VS-6063, VS-6063-25% SDD in Soluplus/PVP-A, VS-6063-25% physical mixture with Soluplus/PVP-A and VS-6063-10% SDD in [sequence] […] Food was returned at 4 hours post-dose.
(§6) Prior to dosing, the body weight of each animal was recorded. Doses (rounded to the nearest 0.01 mL) were calculated based on the pretreatment body weight (kg) and a dose volume of 1 mL/kg. Following the oral gavage dose, the gavage tube was flushed with 10 to 20 mL of water prior to removal of the tube. Dosing syringes were weighed immediately prior to and immediately after dosing each animal, and the quantity of formulation administered to each animal was determined from the difference in syringe weights.
(§7) 4 groups of 1 male beagle dog per group received an oral gavage dose of VS-6063 in various formulations in a 4-session crossover design with a minimum 3-day washout period between dose sessions.
Data set [3] can be described thus: in vivo. Particulars: male, beagle, dog, po.
Protocol: as §1, §2, §3, §4, §5, §6, §7

Like-named read-outs stand apart in the source and are kept apart here.

For `CNC(=O)c1ccc(Nc2ncc(C(F)(F)F)c(NCc3nccnc3N(C)S(C)(=O)=O)n2)cc1` [VS-6063], the “incidence of AEs” value in data set [1] (Regimen A (200 mg reference, fasted)) came to 3 subjects; in data set [1] (Regimen B (100 mg prototype, fasted)), 2 subjects; in data set [1] (Regimen C (fed)), 5 subjects; in data set [1] (Regimen D (fed)) it was 1 subject. Besides, the tolerability result in data set [1] (single dose, fed and fasted, reference and prototype formulations) was “well tolerated”. In addition, the “serious or severe adverse events” value in data set [1] (whole study) is on record as “no serious adverse events (AEs) or severe AEs”. The “total AEs reported” value in data set [1] (whole study, reported by 9 subjects) was 12 AEs. In data set [2], this compound displayed a Mean AUCinf/Dose of 312 ng·h/mL per mg/kg. For the same compound, the Tmax in data set [2] is 2.50 h; in data set [2] (10 mg/kg), 4 h; in data set [3] (10 mg/kg), 2 h; in data set [3] it was 2 to 4 h. In addition, the half-life in data set [3] (10 mg/kg, t1/2) is roughly 3.9 h.

(Values after patent US20150190346A1, “COMPOSITIONS AND METHODS FOR TREATMENT OF ABNORMAL CELL GROWTH” (VERASTEM, INC., priority 2014, published 2015).)
